Experimental findings from a melting point compilation (Tetko et al.; mined from patent text by program, amines drawn as free bases though some values may be those of a salt) are described below.

By melting point is commonly meant the temperature, or range, at which the solid turns liquid. As to `CCOC(=O)C(O)CCn1cnc2c(Cl)nc(N)nc21` (configuration not stated), the melting point is 163 to 164 °C.

As for `O=C(O)c1ccc(OCCCCCCc2cccc(OCc3ccccc3)c2OCc2ccccc2)c(Cl)c1`, the melting point is 87 to 89 °C.

Compound `CC1(C2CCC3C4CCC5CC6OC6CC5(C)C4C(=O)CC32C)OCCO1` (configuration not stated) displayed a melting point of 159 to 160 °C.

On to `CCc1cccc(CNC[C@@H](O)[C@H](Cc2cc(F)cc(F)c2)NC(=O)N2CCC(CS(C)(=O)=O)CC2)c1`, for which the melting point was 130 to 134 °C.

As to `COC(=O)CCC#Cc1cc(Cl)ccc1NS(=O)(=O)c1ccc2nc(N)sc2c1`, the melting point stood at 175 °C.

With `CC(=NO)c1ccc2c(c1)CCC2`, the melting point came out at 104 °C.

With `COc1ccc(CN2C(=O)C(NC(=O)OCc3ccccc3)C2C2COC(=O)O2)cc1OC` (configuration not stated), the melting point lay in the range of 135 to 136 °C.

As for `CCOC(=O)CNc1ccc2oc3c(OC)ccc(C(=O)Nc4c(Cl)cncc4Cl)c3c2c1`, the melting point is greater than 270 °C.

As to `Nc1ccc(CON=Cc2csc(N)n2)cc1`, the melting point was 181 to 183 °C.

As for `CC(C)c1ccc(S(=O)(=O)Nc2ccc(N3CCC(NCC(O)COc4ccc(O)cc4)CC3)nc2)cc1` (configuration not stated), the melting point was 75 to 78 °C.

`CC(=O)N1CCN(c2nccc(Oc3ccc(NC(=O)c4cc(F)cc(N5CCCCC5)c4)c4ccccc34)n2)CC1` had a melting point of 102 to 104 °C.

Take `O=S(=O)(CCc1ccc(O)cc1)CC1CCC1`: the melting point was 112 °C.

`c1ccc2c(c1)CCc1c(CN3CCN(c4ccc5ccccc5n4)CC3)n[nH]c1-2` showed a melting point of 154 to 155 °C.

Consider `COCc1cc2c(NC(=S)N3Cc4ccccc4CC3CCO)cccc2cn1` (racemic), for which the melting point came to 152 °C.

Compound `OCc1c[nH]c(Cc2ccccc2)n1` had a melting point of 134 to 135 °C.

Take `CCC(=CC(CNC(=O)c1cccnc1C)=NO)C(C)[N+](=O)[O-]` (configuration not stated): the melting point fell in the range of 128 to 129 °C.

With `CC(CN(C)C)C(C#N)(c1ccccc1)c1ccccc1` (single isomer, unassigned; (-)), the melting point was in the range of 102 to 103 °C.

In the case of `CCOC(=O)CC(=O)c1cc2cc(F)c(F)c(F)c2nc1Cl`, the melting point was 78 to 80 °C.

`Cc1ccc(NC(=O)c2cc(Cl)ccc2NCC2CCN(C3CCOCC3)CC2)nc1` registered a melting point of 166 to 168 °C.

`COc1ccc(S(=O)(=O)N(CCC(F)=C(F)F)c2ccccc2/C=C/c2ccncc2)cc1` came in with a melting point of 148 to 149 °C.

`CS(=O)(=O)c1ccc(-c2sc(CCc3ccccc3)nc2-c2ccc(F)cc2)cc1` showed a melting point of 153 to 154 °C.

Compound `Cn1ccnc1CC(O)C(F)(F)F` (configuration not stated) gave a melting point of 146 to 148 °C.

In turn, `CNC(=O)ON=C1OCCSC1(C)C` gave a melting point of 67 to 68 °C.

In turn, `COC(=O)CCc1ccc(N2CCN(c3ccc(C#N)cc3)C2=O)cc1` gave a melting point of 160 to 162 °C.

For the compound `COCCn1nc2c(N)nc3ccccc3c2c1CC(C)(C)O`, the melting point lay in the range of 171 to 172 °C.

As to `C=CC(=O)OC(C#N)Cc1cccc(Cl)c1` (configuration not stated), the melting point was 100 to 101 °C.

Take `N#Cc1ccc(C(CC(=O)O)N2C(=O)c3ccccc3C2=O)cc1` (configuration not stated): the melting point was in the range of 134 to 137 °C.

Compound `COc1ccc2c(c1OC)OC(C)(C)CC2=O` had a melting point of 75 to 76 °C.

Compound `NC(=O)c1sc2nccc(N3CCCN(c4ccc([N+](=O)[O-])cc4)CC3)c2c1N` displayed a melting point of 244 to 248 °C.

Consider `COc1ccc2c(c1)CCc1cc(Nc3ccccc3N)ccc1C2=O`, for which the melting point came out at 200 °C.

`CCOC(=O)C1=C(C)NC(N)=C(C(=O)OCC)C1c1ccccc1C(F)(F)F` (configuration not stated): the melting point was 156 °C.

`Cc1cc(C)c2nc(CCCCl)n(-c3ccc(C(C(=O)O)C4CCCC4)cc3)c2n1` (configuration not stated) gave a melting point of 214 °C.

Take `Cn1c(=O)c(-c2ccccc2Cl)cc2cnc(NC3C4CN(C(=O)Nc5ccc(CC(=O)O)cc5)CC43)nc21` (configuration not stated): the melting point lay in the range of 190 to 197 °C.

Turning to `CCOC(CC(=O)Nc1cc(CCNC(=O)C(F)(F)F)ccc1OC)OCC`, the melting point fell in the range of 79 to 80 °C.

Compound `Cc1oc(-c2ccccc2)nc1CCOc1ccc(CC(C(=O)O)c2nc(-c3ccccc3)oc2C)cc1` (configuration not stated) had a melting point of 120 °C.

Compound `CCCCC(=O)OC1(C(C)=O)C(C)CC2C3CCC4=CC(=O)C=CC4(C)C3(Cl)C(Cl)CC21C` (configuration not stated) yielded a melting point of 170 to 172 °C.

`CS(=O)c1ccc(C(=O)Cc2ccccc2)cc1` (configuration not stated) showed a melting point of 104 °C.

The compound `O=C(O)CCC(Cc1ccccc1Br)(C(=O)C=Cc1ccc(Cl)cc1)c1ccccc1` (configuration not stated) returned a melting point of 210 to 214 °C.

Consider `Nc1cc(Cl)cc(Cl)c1C(=O)NCc1ccc(F)cc1`, for which the melting point lay within 89 to 94 °C.

Regarding `CC1CCc2ccc(OCC(O)CNC(C)(C)C)cc2O1` (configuration not stated), the melting point was in the range of 92 to 94 °C.

The compound `O=C(NCc1ccc(Cl)cc1)c1cnc2sc(Br)cc2c1O` gave a melting point of 234 to 236 °C.

For the compound `CCOC(=O)c1ccc(S(=O)(=O)Oc2c(-c3ccccc3)cc(C(=O)c3ccccc3)cc2-c2ccccc2)cc1O`, the melting point lay in the range of 75 to 85 °C.

`COc1ccccc1N1CCN(Cc2c[nH]c3ccccc23)CC1` yielded a melting point of 188 to 190 °C.

The compound `COc1ccc2c(c1)CN(C#N)CC2c1cc(OC)c(OC)c(OC)c1` (configuration not stated) yielded a melting point of 113 to 116 °C.

For `CCc1nc2c(N)nc3ccccc3c2n1CCCS(=O)(=O)NC`, the melting point lay in the range of 225 to 228 °C.

`CCOC(=O)C1=C(C)Nc2nc(N(C)C)nc(N)c2C1c1ccccc1C(F)(F)F` (configuration not stated) registered a melting point of 210 °C.

`CC(Sc1nc(N)cc(C(F)(F)F)n1)c1cc2ccoc2cn1` (configuration not stated) came in with a melting point of 180 to 182 °C.

`O=C(O)CCCn1ccc(=O)c(OCc2ccccc2)c1C(O)c1ccccc1` (configuration not stated) gave a melting point of 205 to 210 °C.

`CCN(CC#N)S(=O)(=O)Cc1cccc(C(F)(F)F)c1` returned a melting point of 67 to 68.5 °C.

As for `COc1cc2c(cc1OCc1ccccc1)[C@H](CO)OC2=O`, the melting point is 126 to 128 °C.

The compound `OCc1cccc(C(O)c2cc(C(F)(F)F)nc3c(C(F)(F)F)cccc23)c1` (configuration not stated) yielded a melting point of 152 to 154 °C.

As to `COc1ccc(NC(=O)c2cccnc2)c2c1oc1ccccc12`, the melting point lay within 200 to 203 °C.

In turn, `Fc1ccc(-c2nc(-c3ccccc3)cn2-c2ccncc2)cc1` displayed a melting point of 90 to 92 °C.

Take `Cc1nc(-c2ccc3c(c2)CCCC3)c(C(=O)O)o1`: the melting point lay within 183 to 185 °C.

Consider `CS(=O)(=O)N(c1ccc(Cl)c(C(=O)Nc2cccc3c4c(oc23)CCCC4)c1Cl)S(C)(=O)=O`, for which the melting point lay in the range of 237 to 238 °C.

For `N#CNc1ccccc1-c1ccccc1F`, the melting point fell in the range of 68 to 69 °C.

Compound `Cc1cc(-c2nc3cccnn3c2-c2ccnc(NC(=O)Nc3ccc(C#N)cc3)c2)ccc1F` had a melting point of 204 to 206 °C.

In the case of `O=C1c2ccccc2C(=O)N1CCOc1cccc2c1SCCC2`, the melting point came to 166 °C.

The compound `O=C(O)c1cc2cc3[nH]c(=O)oc3cc2[nH]1` registered a melting point of 288 to 290 °C.

`COc1cccc2c1CC(N=[N+]=[N-])C(O)C2` (configuration not stated): the melting point fell in the range of 83 to 84 °C.

With `CC(=O)c1nn(-c2c(Cl)cc(C(F)(F)F)cc2Cl)c(N)c1S(C)=O` (configuration not stated), the melting point stood at 166 °C.

`COc1ccc(C(c2ccc(OC)c(O)c2)n2cncn2)cc1O` yielded a melting point of 218 to 219 °C.
